Where two headings read alike, the source gives them in different places.
Assays:
[1] = Clinical study #4: PK of edaravone oral formulation (formula #2), high-fat meal 1 hour after administration vs fasted; assay type: in vivo, human; details: 100 mg oral; for partial AUC / AUC(0-inf) / Cmax / Tmax / half-life: male, human, plasma, po, 100 mg; for AUC(0-inf) / Cmax / Tmax / half-life: mean (n = 9)
Description: Effects of meal consumption 1 hour after administration of the edaravone oral formulation on the pharmacokinetics of edaravone were evaluated. Specifically, a clinical study #4 described below was conducted on the same subjects in Japanese healthy adult male subjects. In the clinical study #4, the edaravone oral formulation of the formula #2 in Table 1 above was used and administered orally once during the study period. In addition, the same high-fat meal as that used in Example 1 above was used.
As a post-administration consumption group, the same subjects in fasted conditions after a lapse of 10 hours or longer from meal consumption were orally administered with the edaravone oral formulation, and the high-fat meal was consumed 1 hour after the administration. Blood samples were each collected before the administration, and 5 minutes, 15 minutes, 30 minutes, 1 hour, 1.5 hours, 2 hours, 4 hours, 6 hours, 8 hours, 12 hours, 24 hours, 36 hours, and 48 hours after the administration, and the concentrations of unchanged edaravone in plasma were measured. The consumption of the high-fat meal 1 hour after the administration was carried out after the blood sample collection 1 hour after the administration, and a subsequent meal was not consumed until the blood sample collection 4 hours after the administration was completed. On the other hand, as a fasted group for reference, the edaravone oral formulation was administered orally to the same subjects in fasted conditions, blood samples were collected, and the concentrations of unchanged edaravone in plasma were measured in the same manner.
In addition, the AUC0-∞ after the administration of the edaravone oral formulation was evaluated separately on the results from 0 hour to 1 hour after the administration (0 to 1 h, before the consumption of a meal resumed after the administration) (AUC0-1h) and the results 1 hour after the administration (1 h to ∞ h, after the consumption of a meal resumed after the administration) (AUC1h-∞) for the post-administration consumption group (1 h before high-fat meal) and the fasted group (Fasted).

[2] = Oxidation of edaravone depending on pH; assay type: physicochemical; details: dependence on pH
[3] = 1 h before high-fat meal vs fasted
[4] = high-fat meal 1 hour after administration vs fasted
[5] = formula #2, 1 h before high-fat meal

change in the AUC0-1h in comparison with fasted [1, 3]: slight decrease | change in the AUC1h-∞ in comparison with fasted [1, 3]: no change | change in the AUC in comparison with fasted [1, 3]: → | change in the Cmax in comparison with fasted [1, 3]: → | decrease in the AUC in comparison with the fasted group [1, 4]: about 10.4% | decrease in the Cmax in comparison with the fasted group [1, 4]: about 17.0% | partial AUC ([1]; 1 h before high-fat meal (n = 9), read-out: AUC0-1h): 772 ± 519 ng·h/mL | partial AUC ([1]; 1 h before high-fat meal (n = 9), read-out: AUC1h-∞): 703 ± 202 ng·h/mL | partial AUC ([1]; fasted (n = 9), read-out: AUC0-1h): 890 ± 349 ng·h/mL | partial AUC ([1]; fasted (n = 9), read-out: AUC1h-∞): 756 ± 232 ng·h/mL | AUC(0-inf) [1, 5]: 1480 ng·h/mL | Cmax [1, 5]: 1500 ng/mL | Tmax [1, 5]: 0.6 h | half-life [1, 5]: 9.65 h | AUC(0-inf) ([1]; formula #2, fasted): 1650 ng·h/mL | Cmax ([1]; formula #2, fasted): 1810 ng/mL | Tmax ([1]; formula #2, fasted): 0.36 h | half-life ([1]; formula #2, fasted): 9.33 h
SMILES: CC1=NN(c2ccccc2)C(=O)C1 [Edaravone, 3-methyl-1-phenyl-2-pyrazolin-5-one]
oxidation of edaravone [2]: accelerated at a pH of 2.5 or lower and at a pH of 6.0 or higher

From US12310946B2, “Pharmaceutical composition for oral administration of edaravone and method of administering same” (MITSUBISHI TANABE PHARMA CORPORATION, priority 2020, dated 2025)
